Data from PubChem BioAssay AID212 (DTP/NCI, 2004).
“And” between values parts separate entries of the source, which are not always exact repeats. Identical values can stand only once. Records with an inconclusive call do not appear.

Tested on: BDF1 mice, colon carcinoma 38 sc, T/C %
Test: NCI In Vivo Anticancer Drug Screen. Data for tumor model Colon Carcinoma 38 (subcutaneous) in B6D2F1 (BDF1) mice
Outline: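 Transplantable tumor in mice; compound-treated vs vehicle-dosed controls. Measured survival or tumor size; value = T ÷ C.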

[1] = endpoint: median tumor weight (est.), dose: 12.5 mg/kg/injection, schedule: Q07DX002 (ip), vehicle: saline with Tween-80, higher = larger tumour
[2] = endpoint: median tumor weight (est.), dose: 50.0 mg/kg/injection, schedule: Q07DX002 (ip), vehicle: saline with Tween-80, higher = larger tumour
[3] = endpoint: median tumor weight (est.), dose: 200.0 mg/kg/injection, schedule: Q07DX002 (ip), vehicle: saline with Tween-80, higher = larger tumour
[4] = endpoint: median tumor weight (est.), dose: 400.0 mg/kg/injection, schedule: Q07DX002 (ip), vehicle: saline with Tween-80, higher = larger tumour
[5] = endpoint: median tumor weight (est.), dose: 100.0 mg/kg/injection, schedule: Q07DX002 (ip), vehicle: saline with Tween-80, higher = larger tumour

## Cc1nn(CCO)c(C)c1N=[N+]([O-])c1c(C)nn(CCO)c1C
endpoint: median tumor weight (est.), dose: 6.25 mg/kg/injection, schedule: Q07DX002 (ip), vehicle: Klucel (hydroxypropylcellulose) (HPC), higher = larger tumour
  T/C: 116 % of control
endpoint: median tumor weight (est.), dose: 6.25 mg/kg/injection, schedule: Q07DX002 (ip), vehicle: saline with Tween-80, higher = larger tumour
  T/C: 102 % of control
endpoint: median tumor weight (est.), dose: 12.5 mg/kg/injection, schedule: Q07DX002 (ip), vehicle: Klucel (hydroxypropylcellulose) (HPC), higher = larger tumour
  T/C: 86 % of control
[1]
  T/C: 98 % of control
endpoint: median tumor weight (est.), dose: 25.0 mg/kg/injection, schedule: Q07DX002 (ip), vehicle: Klucel (hydroxypropylcellulose) (HPC), higher = larger tumour
  T/C: 108 % of control and 91 % of control
endpoint: median tumor weight (est.), dose: 50.0 mg/kg/injection, schedule: Q07DX002 (ip), vehicle: Klucel (hydroxypropylcellulose) (HPC), higher = larger tumour
  T/C: 100 % of control and 104 % of control
[2]
  T/C: 86 % of control
endpoint: median tumor weight (est.), dose: 200.0 mg/kg/injection, schedule: Q07DX002 (ip), vehicle: Klucel (hydroxypropylcellulose) (HPC), higher = larger tumour
  T/C: 24 % of control
[3]
  T/C: 79 % of control

## CC(CN1CC(=O)NC(=O)C1)N1CC(=O)NC(=O)C1 (stereo unspecified)
endpoint: median tumor weight (est.), dose: 25.0 mg/kg/injection, schedule: Q07DX003 (ip), vehicle: Klucel (hydroxypropylcellulose) (HPC), higher = larger tumour
  T/C: 84 % of control and 89 % of control
endpoint: median tumor weight (est.), dose: 50.0 mg/kg/injection, schedule: Q07DX003 (ip), vehicle: Klucel (hydroxypropylcellulose) (HPC), higher = larger tumour
  T/C: 73 % of control and 85 % of control
endpoint: median tumor weight (est.), dose: 200.0 mg/kg/injection, schedule: Q07DX003 (ip), vehicle: Klucel (hydroxypropylcellulose) (HPC), higher = larger tumour
  T/C: 51 % of control and 54 % of control
endpoint: median tumor weight (est.), dose: 400.0 mg/kg/injection, schedule: Q07DX003 (ip), vehicle: Klucel (hydroxypropylcellulose) (HPC), higher = larger tumour
  T/C: 9 % of control and 15 % of control

## COc1cc([C@@H]2c3cc4c(cc3[C@@H](OC3OC5CO[C@@H](c6cccs6)OC5C(O)C3O)[C@H]3COC(=O)[C@H]23)OCO4)cc(OC)c1O (stereo partly specified)
endpoint: median tumor weight (est.), dose: 1.0 mg/kg/injection, schedule: Q07DX002 (ip), vehicle: suspension in saline, higher = larger tumour
  T/C: 88 % of control
endpoint: median tumor weight (est.), dose: 2.0 mg/kg/injection, schedule: Q07DX002 (ip), vehicle: suspension in saline, higher = larger tumour
  T/C: 113 % of control and 100 % of control
endpoint: median tumor weight (est.), dose: 4.0 mg/kg/injection, schedule: Q07DX002 (ip), vehicle: suspension in saline, higher = larger tumour
  T/C: 63 % of control and 75 % of control

## NC(=O)c1c[se]c(C2OC(CO)C(O)C2O)n1 (stereo unspecified)
endpoint: median tumor weight (est.), dose: 25.0 mg/kg/injection, schedule: Q07DX002 (ip), vehicle: water, higher = larger tumour
  T/C: 56 % of control
endpoint: median tumor weight (est.), dose: 50.0 mg/kg/injection, schedule: Q07DX002 (ip), vehicle: saline, higher = larger tumour
  T/C: 79 % of control
endpoint: median tumor weight (est.), dose: 50.0 mg/kg/injection, schedule: Q07DX002 (ip), vehicle: water, higher = larger tumour
  T/C: 74 % of control
endpoint: median tumor weight (est.), dose: 100.0 mg/kg/injection, schedule: Q07DX002 (ip), vehicle: saline, higher = larger tumour
  T/C: 89 % of control
endpoint: median tumor weight (est.), dose: 100.0 mg/kg/injection, schedule: Q07DX002 (ip), vehicle: water, higher = larger tumour
  T/C: 44 % of control
endpoint: median tumor weight (est.), dose: 200.0 mg/kg/injection, schedule: Q07DX002 (ip), vehicle: saline, higher = larger tumour
  T/C: 73 % of control
endpoint: median tumor weight (est.), dose: 200.0 mg/kg/injection, schedule: Q07DX002 (ip), vehicle: water, higher = larger tumour
  T/C: 42 % of control
endpoint: median tumor weight (est.), dose: 400.0 mg/kg/injection, schedule: Q07DX002 (ip), vehicle: saline, higher = larger tumour
  T/C: 74 % of control
endpoint: median tumor weight (est.), dose: 400.0 mg/kg/injection, schedule: Q07DX002 (ip), vehicle: water, higher = larger tumour
  T/C: 40 % of control
endpoint: median tumor weight (est.), dose: 800.0 mg/kg/injection, schedule: Q07DX002 (ip), vehicle: saline, higher = larger tumour
  T/C: 90 % of control

## C/C(=N\NC(N)=O)c1cccc(/C(C)=N/NC(N)=O)n1
[1]
  T/C: 87 % of control and 94 % of control
endpoint: median tumor weight (est.), dose: 25.0 mg/kg/injection, schedule: Q07DX002 (ip), vehicle: saline with Tween-80, higher = larger tumour
  T/C: 66 % of control and 71 % of control
[2]
  T/C: 73 % of control and 96 % of control
[3]
  T/C: 96 % of control
[4]
  T/C: 57 % of control

## Nc1ccc2ccc(NS(=O)(=O)N3CCCCC3)cc2c1
[5]
  T/C: 120 % of control
[3]
  T/C: 99 % of control
[4]
  T/C: 124 % of control

## COc1cccc2c1C(=O)c1c(O)c3c(c(O)c1C2=O)C[C@@](O)(C(=O)CO)C[C@@H]3OC1CC(N)C(O)C(C)O1 (stereo partly specified)
endpoint: median survival time, dose: 2.7 mg/kg/injection, schedule: Q07DX003 (iv), vehicle: saline, higher = longer survival
  T/C: 104 % of control
endpoint: median survival time, dose: 3.3 mg/kg/injection, schedule: Q07DX002 (iv), vehicle: saline, higher = longer survival
  T/C: 112 % of control and 108 % of control
endpoint: median survival time, dose: 3.3 mg/kg/injection, schedule: Q07DX004 (iv), vehicle: saline, higher = longer survival
  T/C: 118 % of control
endpoint: median survival time, dose: 4.1 mg/kg/injection, schedule: Q07DX003 (iv), vehicle: saline, higher = longer survival
  T/C: 100 % of control
endpoint: median survival time, dose: 4.5 mg/kg/injection, schedule: Q07DX002 (sc), vehicle: saline, higher = longer survival
  T/C: 79 % of control
endpoint: median survival time, dose: 5.2 mg/kg/injection, schedule: Q07DX002 (iv), vehicle: saline, higher = longer survival
  T/C: 174 % of control
endpoint: median survival time, dose: 5.4 mg/kg/injection, schedule: Q07DX002 (iv), vehicle: saline, higher = longer survival
  T/C: 109 % of control and 124 % of control
endpoint: median survival time, dose: 5.4 mg/kg/injection, schedule: Q07DX004 (iv), vehicle: saline, higher = longer survival
  T/C: 155 % of control
endpoint: median survival time, dose: 6.0 mg/kg/injection, schedule: Q07DX003 (iv), vehicle: saline, higher = longer survival
  T/C: 157 % of control
endpoint: median survival time, dose: 7.3 mg/kg/injection, schedule: Q07DX002 (sc), vehicle: saline, higher = longer survival
  T/C: 104 % of control
endpoint: median survival time, dose: 8.5 mg/kg/injection, schedule: Q07DX002 (sc), vehicle: saline, higher = longer survival
  T/C: 166 % of control
endpoint: median survival time, dose: 8.7 mg/kg/injection, schedule: Q07DX002 (iv), vehicle: saline, higher = longer survival
  T/C: 124 % of control
endpoint: median survival time, dose: 8.7 mg/kg/injection, schedule: Q07DX004 (iv), vehicle: saline, higher = longer survival
  T/C: 184 % of control
endpoint: median survival time, dose: 9.0 mg/kg/injection, schedule: Q07DX003 (iv), vehicle: saline, higher = longer survival
  T/C: 168 % of control
endpoint: median survival time, dose: 9.0 mg/kg/injection, schedule: Q07DX003 (sc), vehicle: saline, higher = longer survival
  T/C: 164 % of control
endpoint: median survival time, dose: 12.0 mg/kg/injection, schedule: Q07DX002 (sc), vehicle: saline, higher = longer survival
  T/C: 113 % of control
endpoint: median survival time, dose: 13.5 mg/kg/injection, schedule: Q07DX003 (sc), vehicle: saline, higher = longer survival
  T/C: 166 % of control
endpoint: median survival time, dose: 15.5 mg/kg/injection, schedule: Q07DX003 (iv), vehicle: saline, higher = longer survival
  T/C: 152 % of control
endpoint: median tumor weight (est.), dose: 0.18 mg/kg/injection, schedule: Q07DX002 (ip), vehicle: water, higher = larger tumour
  T/C: 67 % of control
endpoint: median tumor weight (est.), dose: 0.37 mg/kg/injection, schedule: Q07DX002 (ip), vehicle: water, higher = larger tumour
  T/C: 102 % of control
endpoint: median tumor weight (est.), dose: 0.5 mg/kg/injection, schedule: Q07DX002 (ip), vehicle: water, higher = larger tumour
  T/C: 108 % of control
endpoint: median tumor weight (est.), dose: 0.5 mg/kg/injection, schedule: Q07DX003 (ip), vehicle: saline, higher = larger tumour
  T/C: 101 % of control
endpoint: median tumor weight (est.), dose: 1.0 mg/kg/injection, schedule: Q07DX003 (ip), vehicle: saline, higher = larger tumour
  T/C: 101 % of control
endpoint: median tumor weight (est.), dose: 1.25 mg/kg/injection, schedule: Q07DX002 (ip), vehicle: water, higher = larger tumour
  T/C: 90 % of control
endpoint: median tumor weight (est.), dose: 2.0 mg/kg/injection, schedule: Q07DX003 (ip), vehicle: saline, higher = larger tumour
  T/C: 191 % of control
endpoint: median tumor weight (est.), dose: 2.5 mg/kg/injection, schedule: Q07DX002 (ip), vehicle: saline, higher = larger tumour
  T/C: 90 % of control
endpoint: median tumor weight (est.), dose: 2.5 mg/kg/injection, schedule: Q07DX002 (ip), vehicle: water, higher = larger tumour
  T/C: 50 % of control
endpoint: median tumor weight (est.), dose: 3.0 mg/kg/injection, schedule: Q07DX002 (ip), vehicle: saline, higher = larger tumour
  T/C: 106 % of control and 110 % of control
endpoint: median tumor weight (est.), dose: 3.0 mg/kg/injection, schedule: Q07DX003 (iv), vehicle: saline, higher = larger tumour
  T/C: 82 % of control and 83 % of control
endpoint: median tumor weight (est.), dose: 4.0 mg/kg/injection, schedule: Q07DX003 (ip), vehicle: saline, higher = larger tumour
  T/C: 85 % of control
endpoint: median tumor weight (est.), dose: 4.75 mg/kg/injection, schedule: Q07DX002 (ip), vehicle: water, higher = larger tumour
  T/C: 68 % of control
endpoint: median tumor weight (est.), dose: 5.0 mg/kg/injection, schedule: Q07DX002 (ip), vehicle: saline, higher = larger tumour
  T/C: 70 % of control
endpoint: median tumor weight (est.), dose: 5.0 mg/kg/injection, schedule: Q07DX002 (ip), vehicle: water, higher = larger tumour
  T/C: 25 % of control
endpoint: median tumor weight (est.), dose: 6.33 mg/kg/injection, schedule: Q07DX002 (ip), vehicle: water, higher = larger tumour
  T/C: 14 % of control
endpoint: median tumor weight (est.), dose: 8.0 mg/kg/injection, schedule: Q07DX003 (ip), vehicle: saline, higher = larger tumour
  T/C: 91 % of control
endpoint: median tumor weight (est.), dose: 8.44 mg/kg/injection, schedule: Q07DX002 (ip), vehicle: water, higher = larger tumour
  T/C: 53 % of control
endpoint: median tumor weight (est.), dose: 9.0 mg/kg/injection, schedule: Q07DX002 (ip), vehicle: water, higher = larger tumour
  T/C: 56 % of control
endpoint: median tumor weight (est.), dose: 11.25 mg/kg/injection, schedule: Q07DX002 (ip), vehicle: water, higher = larger tumour
  T/C: 21 % of control
endpoint: median tumor weight (est.), dose: 12.0 mg/kg/injection, schedule: Q07DX002 (ip), vehicle: saline, higher = larger tumour
  T/C: 53 % of control
endpoint: median tumor weight (est.), dose: 12.0 mg/kg/injection, schedule: Q07DX003 (iv), vehicle: saline, higher = larger tumour
  T/C: 26 % of control
endpoint: median tumor weight (est.), dose: 15.0 mg/kg/injection, schedule: Q07DX002 (ip), vehicle: water, higher = larger tumour
  T/C: 6 % of control
endpoint: median tumor weight (est.), dose: 16.0 mg/kg/injection, schedule: Q07DX003 (ip), vehicle: saline, higher = larger tumour
  T/C: 103 % of control
endpoint: median tumor weight (est.), dose: 24.0 mg/kg/injection, schedule: Q07DX003 (iv), vehicle: saline, higher = larger tumour
  T/C: 12 % of control

## Nc1ccc2nc3c4ccccc4c(O)n3nc2c1
[2]
  T/C: 83 % of control
[5]
  T/C: 101 % of control
[3]
  T/C: 94 % of control
[4]
  T/C: 98 % of control
